Values quoted from earlier work, collected in patent publication US6200602A, “Composition for enhanced uptake of polar drugs from the colon” (priority 1995, dated 2001).

How the values were obtained:
[1] = absorption enhancer in the gastrointestinal tract
[2] = literature knowledge
[3] = oral / gastrointestinal tract
[4] = rat intestine; sodium caprate and sodium glycocholate as enhancers

Molecule: C[C@H](CCC(=O)O)[C@H]1CC[C@H]2[C@@H]3CC[C@@H]4C[C@H](O)CC[C@]4(C)[C@H]3C[C@H](O)[C@]12C [sodium deoxycholate]
- side effect and toxicity [1]: associated with potential side effect (diarrhoea) and toxicity
- absorption promoting effect [2]: known to act as an absorption enhancer in the gastrointestinal tract

Molecule: CNC(=C[N+](=O)[O-])NCCSCc1ccc(CN(C)C)o1 [ranitidine]
- absorption when dosed orally [3]: poor or erratic absorption

Molecule: CN/C(=N/CCSCc1nc[nH]c1C)NC#N [cimetidine]
- absorption when dosed orally [3]: poor or erratic absorption

Molecule: CCCCCCCCCC(=O)[O-].[Na+] [sodium caprate]
- absorption promoting effect [2]: can act as an absorption promoting agent

Molecule: C[C@H](CS)C(=O)N1CCC[C@H]1C(=O)O [captopril]
- absorption when dosed orally [3]: poor or erratic absorption

Molecule: O=C(O)c1cc(=O)c2c(OCC(O)COc3cccc4oc(C(=O)O)cc(=O)c34)cccc2o1 [sodium cromoglycate]
- absorption when dosed orally [3]: poor or erratic absorption

Molecule: insulin: polypeptide drug
- preferred site for insulin absorption [4]: the ileum was the most preferred site for insulin absorption

Molecule: O=P(O)(O)C(Cl)(Cl)P(=O)(O)O [clodronate]
- absorption when dosed orally [3]: poor or erratic absorption
